Our source for the IC50 values is US20260374756A1, “HETEROCYCLIC COMPOUNDS AS INHIBITORS OF MONOACYLGLYCEROL LIPASE (MAGL)” (Hoffmann-La Roche Inc., priority 2022, published 2026).

SMILES strings stand for the structures.

In the experiment the target is T1, hMAGL (Homo sapiens, UniProt Q99685).
T1 sequence (Q99685 1-303): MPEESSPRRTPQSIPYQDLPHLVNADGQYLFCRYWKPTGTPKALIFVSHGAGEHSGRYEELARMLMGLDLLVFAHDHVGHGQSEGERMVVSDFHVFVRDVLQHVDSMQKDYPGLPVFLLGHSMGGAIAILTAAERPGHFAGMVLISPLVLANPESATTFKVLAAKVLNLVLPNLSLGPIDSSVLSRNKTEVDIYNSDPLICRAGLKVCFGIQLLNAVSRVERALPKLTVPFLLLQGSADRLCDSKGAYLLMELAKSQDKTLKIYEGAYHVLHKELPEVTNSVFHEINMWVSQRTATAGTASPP
The experiment in a line: 2-AG assay: MAGL inhibition, hydrolysis of 2-arachidonoylglycerol to arachidonic acid followed by mass spectrometry. Type of experiment: biochemical. The procedure, abridged: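 Read-out is LC-MS/MS of arachidonic acid released from 2-arachidonoylglycerol (8 μM final), normalised to d8-arachidonic acid internal standard after acetonitrile quench. Enzyme […] and compound were pre-mixed 15 min, then reacted 30 min, both at RT, in Tris/EDTA buffer with 0.01% Tween-20 and 2.5% DMSO.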
On to `Cn1ncc(OC2CC3(C2)CN(C(=O)N2CC4(CC(n5cnc(C6CC6)n5)C4)C2)C3)c1C(F)(F)F` [Example 247, [6-(3-cyclopropyl-1,2,4-triazol-1-yl)-2-azaspiro[3.3]heptan-2-yl]-[6-[1-methyl-5-(trifluoromethyl)pyrazol-4-yl]oxy-2-azaspiro[3.3]heptan-2-yl]methanone], for which inhibition was half-maximal at 0.92 nM (IC50). With `O=C(N1CC2(CC(Cc3cnn(CC(F)(F)F)n3)C2)C1)N1CC2(CC(n3cnc(C(F)(F)F)n3)C2)C1` [Example 340, [6-[[2-(2,2,2-trifluoroethyl)triazol-4-yl]methyl]-2-azaspiro[3.3]heptan-2-yl]-[6-[3-(trifluoromethyl)-1,2,4-triazol-1-yl]-2-azaspiro[3.3]heptan-2-yl]methanone] the figure was 3.62 nM; with `O=C(N1CC2(CC(Cc3nsc(C(F)(F)F)n3)C2)C1)N1CC2(CC(n3cnc(C(F)(F)F)n3)C2)C1` [Example 20, [6-[[5-(trifluoromethyl)-1,2,4-thiadiazol-3-yl]methyl]-2-azaspiro[3.3]heptan-2-yl]-[6-[3-(trifluoromethyl)-1,2,4-triazol-1-yl]-2-azaspiro[3.3]heptan-2-yl]methanone], 0.85 nM. In the case of `CCn1nc(C(F)(F)F)cc1CN1CC2(C1)CN(C(=O)N1CC3(CC(n4cnc(C5(O)CC5)n4)C3)C1)C2` [Example 168, [6-[[2-ethyl-5-(trifluoromethyl)pyrazol-3-yl]methyl]-2,6-diazaspiro[3.3]heptan-2-yl]-[6-[3-(1-hydroxycyclopropyl)-1,2,4-triazol-1-yl]-2-azaspiro[3.3]heptan-2-yl]methanone], 45.6 nM corresponded to half-maximal inhibition (IC50).

`O=C(N1CC2(CC(n3cnc(C4CC4)n3)C2)C1)N1CC2(CN(Cc3ccn(CCC(F)(F)F)n3)C2)C1` [Example 321, [6-(3-cyclopropyl-1,2,4-triazol-1-yl)-2-azaspiro[3.3]heptan-2-yl]-[6-[[1-(3,3,3-trifluoropropyl)pyrazol-3-yl]methyl]-2,6-diazaspiro[3.3]heptan-2-yl]methanone]: the IC50 (commonly the concentration that inhibits the measured activity by half) was 49.1 nM. `O=C(N1CC2(CC(n3cnc(C4CC4)n3)C2)C1)N1CC2(CN(Cc3cnn(CC(F)(F)F)c3)C2)C1` [Example 110, [6-(3-cyclopropyl-1,2,4-triazol-1-yl)-2-azaspiro[3.3]heptan-2-yl]-[6-[[1-(2,2,2-trifluoroethyl)pyrazol-4-yl]methyl]-2,6-diazaspiro[3.3]heptan-2-yl]methanone] gave an IC50 of 328 nM. Compared with the last molecule, the IC50 is about 6.7-fold higher. On to `Cn1cc(C(F)(F)F)c(CC2CC3(C2)CN(C(=O)N2CC4(CC(n5cnc(C6(O)CC6)n5)C4)C2)C3)n1` [Example 289, [6-[3-(1-hydroxycyclopropyl)-1,2,4-triazol-1-yl]-2-azaspiro[3.3]heptan-2-yl]-[6-[[1-methyl-4-(trifluoromethyl)pyrazol-3-yl]methyl]-2-azaspiro[3.3]heptan-2-yl]methanone], for which the IC50 is 2.9 nM. This IC50 lies about 110-fold lower than the previous one. The molecule `O=C(N1CC2(CC(n3cnc(C4CC4)n3)C2)C1)N1CC2(CN(Cc3nccn3CC(F)(F)F)C2)C1` [Example 234, [6-(3-cyclopropyl-1,2,4-triazol-1-yl)-2-azaspiro[3.3]heptan-2-yl]-[6-[[1-(2,2,2-trifluoroethyl)imidazol-2-yl]methyl]-2,6-diazaspiro[3.3]heptan-2-yl]methanone] showed an IC50 of 41.3 nM. With `Cc1cc(C(F)F)n(CC2CC3(C2)CN(C(=O)N2CC4(CC(n5cnc(C(F)(F)F)n5)C4)C2)C3)n1` [Example 91, [6-[[5-(difluoromethyl)-3-methyl-pyrazol-1-yl]methyl]-2-azaspiro[3.3]heptan-2-yl]-[6-[3-(trifluoromethyl)-1,2,4-triazol-1-yl]-2-azaspiro[3.3]heptan-2-yl]methanone] the figure was 1.02 nM; with `O=C(N1CC2(CC(n3cnc(C4CC4)n3)C2)C1)N1CC2(CN(Cc3cnn(CC(F)(F)F)n3)C2)C1` [Example 196, [6-(3-cyclopropyl-1,2,4-triazol-1-yl)-2-azaspiro[3.3]heptan-2-yl]-[6-[[2-(2,2,2-trifluoroethyl)triazol-4-yl]methyl]-2,6-diazaspiro[3.3]heptan-2-yl]methanone], 79 nM; with `O=C(N1CC2(CC(Cc3cc(C(F)(F)F)n[nH]3)C2)C1)N1CC2(CC(n3cnc(C(F)(F)F)n3)C2)C1` [Example 298, [6-[[3-(trifluoromethyl)-1H-pyrazol-5-yl]methyl]-2-azaspiro[3.3]heptan-2-yl]-[6-[3-(trifluoromethyl)-1,2,4-triazol-1-yl]-2-azaspiro[3.3]heptan-2-yl]methanone], 0.23 nM. As to `CC(C)(C)c1c[nH]c(CN2CC3(C2)CN(C(=O)N2CC4(CC(n5cnc(C(F)(F)F)n5)C4)C2)C3)n1` [Example 252, [6-[(4-tert-butyl-1H-imidazol-2-yl)methyl]-2,6-diazaspiro[3.3]heptan-2-yl]-[6-[3-(trifluoromethyl)-1,2,4-triazol-1-yl]-2-azaspiro[3.3]heptan-2-yl]methanone], the IC50 is 117 nM. On to `Cn1ncc(P(C)(C)=O)c1CN1CC2(C1)CN(C(=O)N1CC3(CC(n4cnc(C(F)(F)F)n4)C3)C1)C2` [Example 227, [6-[(4-dimethylphosphoryl-2-methyl-pyrazol-3-yl)methyl]-2,6-diazaspiro[3.3]heptan-2-yl]-[6-[3-(trifluoromethyl)-1,2,4-triazol-1-yl]-2-azaspiro[3.3]heptan-2-yl]methanone], for which half-maximal inhibition (IC50) was put at 1380 nM. For `CC(C)(C)c1ncc(CN2CC3(C2)CN(C(=O)N2CC4(CC(n5cnc(C(F)(F)F)n5)C4)C2)C3)s1` [Example 56, [6-[(2-tert-butylthiazol-5-yl)methyl]-2,6-diazaspiro[3.3]heptan-2-yl]-[6-[3-(trifluoromethyl)-1,2,4-triazol-1-yl]-2-azaspiro[3.3]heptan-2-yl]methanone] the value was 10.6 nM; for `Cn1cc(CN2CC3(C2)CN(C(=O)N2CC4(CC(n5cnc(C6CC6)n5)C4)C2)C3)c(C(F)(F)F)n1` [Example 192], 16.8 nM. With `Cc1nc(C)c(CN2CC3(C2)CN(C(=O)N2CC4(CC(n5cnc(C6CC6)n5)C4)C2)C3)s1` [Example 302, [6-(3-cyclopropyl-1,2,4-triazol-1-yl)-2-azaspiro[3.3]heptan-2-yl]-[6-[(2,4-dimethylthiazol-5-yl)methyl]-2,6-diazaspiro[3.3]heptan-2-yl]methanone] the figure was 9.77 nM; with `O=C(N1CC2(CCN(Cc3cc(C(F)(F)F)sn3)CC2)C1)N1CC2(CC(n3cnc(C4(O)CC4)n3)C2)C1` [Example 48, [6-[3-(1-hydroxycyclopropyl)-1,2,4-triazol-1-yl]-2-azaspiro[3.3]heptan-2-yl]-[7-[[5-(trifluoromethyl)isothiazol-3-yl]methyl]-2,7-diazaspiro[3.5]nonan-2-yl]methanone], 42.9 nM; with `O=C(N1CC2(CC(Cc3cn[nH]c3C(F)(F)F)C2)C1)N1CC2(CC(n3cnc(C(F)(F)F)n3)C2)C1` [Example 119, [6-[[5-(trifluoromethyl)-1H-pyrazol-4-yl]methyl]-2-azaspiro[3.3]heptan-2-yl]-[6-[3-(trifluoromethyl)-1,2,4-triazol-1-yl]-2-azaspiro[3.3]heptan-2-yl]methanone], 0.12 nM.

Regarding `O=C(N1CC2(CC(n3cnc(C4(O)CC4)n3)C2)C1)N1CC2(CN(Cc3ncc(C(F)F)s3)C2)C1` [Example 186], the midpoint of inhibition, the IC50, lay at 84.1 nM. In the case of `O=C(N1CC2(CC(n3cnc(C4CC4)n3)C2)C1)N1CC2(CN(Cc3nc(C(F)(F)F)no3)C2)C1` [Example 173, [6-(3-cyclopropyl-1,2,4-triazol-1-yl)-2-azaspiro[3.3]heptan-2-yl]-[6-[[3-(trifluoromethyl)-1,2,4-oxadiazol-5-yl]methyl]-2,6-diazaspiro[3.3]heptan-2-yl]methanone], the IC50 stood at 11.9 nM. In the case of `O=C(N1CC2(CC(n3cnc(C(F)(F)F)n3)C2)C1)N1CC2(CN(Cc3cnn(CC(F)(F)F)c3)C2)C1` [Example 109, [6-[[1-(2,2,2-trifluoroethyl)pyrazol-4-yl]methyl]-2,6-diazaspiro[3.3]heptan-2-yl]-[6-[3-(trifluoromethyl)-1,2,4-triazol-1-yl]-2-azaspiro[3.3]heptan-2-yl]methanone], half-maximal inhibition (IC50) was put at 1380 nM. Compared with the last molecule, the IC50 is about 120-fold higher. `O=C(N1CC2(CC(Cc3cc(C4CC4)[nH]n3)C2)C1)N1CC2(CC(n3cnc(C(F)F)n3)C2)C1` [Example 342, [6-[(5-cyclopropyl-1H-pyrazol-3-yl)methyl]-2-azaspiro[3.3]heptan-2-yl]-[6-[3-(difluoromethyl)-1,2,4-triazol-1-yl]-2-azaspiro[3.3]heptan-2-yl]methanone] gave an IC50 of 3.26 nM.

Take `O=C(N1CC2(CCN(Cc3nc(C(F)(F)F)cs3)CC2)C1)N1CC2(CC(c3cc(C4CC4)n[nH]3)C2)C1` [Example 174, [6-(3-cyclopropyl-1H-pyrazol-5-yl)-2-azaspiro[3.3]heptan-2-yl]-[7-[[4-(trifluoromethyl)thiazol-2-yl]methyl]-2,7-diazaspiro[3.5]nonan-2-yl]methanone]: the IC50 worked out at 4.84 nM. As for `Cc1cc(C(F)(F)F)nn1CC1CC2(C1)CN(C(=O)N1CC3(CC(n4cnc(C(F)(F)F)n4)C3)C1)C2` [Example 68, [6-[[5-methyl-3-(trifluoromethyl)pyrazol-1-yl]methyl]-2-azaspiro[3.3]heptan-2-yl]-[6-[3-(trifluoromethyl)-1,2,4-triazol-1-yl]-2-azaspiro[3.3]heptan-2-yl]methanone], the half-inhibitory concentration (IC50) amounted to 5.8 nM.
